Test results taken from paper PMC5214746, “Biological and Chemical Adaptation to Endogenous Hydrogen Peroxide Production in Streptococcus pneumoniae D39” (mSphere, 2017).

Biological target: T1, S. pneumoniae SpxB (pyruvate oxidase) (Streptococcus pneumoniae, UniProt A0A0H2ZP58)
T1 construct: recombinant from E. coli Rosetta BL21(DE3)/pLysS, pHis-parallel vector, His tag apparently kept
Assay: H2O2 generation, peroxidase-coupled quinoneimine dye at […] nm
Assay type: biochemical
Conditions: 0.2 mM pyruvate, 50 mM KH2PO4 pH 6, 0.2 mM FAD, 0.2 mM TPP, 0.5 to 2 mM Mg(II) or Mn(II), 37 °C

T1 sequence (A0A0H2ZP58 entry or part of it): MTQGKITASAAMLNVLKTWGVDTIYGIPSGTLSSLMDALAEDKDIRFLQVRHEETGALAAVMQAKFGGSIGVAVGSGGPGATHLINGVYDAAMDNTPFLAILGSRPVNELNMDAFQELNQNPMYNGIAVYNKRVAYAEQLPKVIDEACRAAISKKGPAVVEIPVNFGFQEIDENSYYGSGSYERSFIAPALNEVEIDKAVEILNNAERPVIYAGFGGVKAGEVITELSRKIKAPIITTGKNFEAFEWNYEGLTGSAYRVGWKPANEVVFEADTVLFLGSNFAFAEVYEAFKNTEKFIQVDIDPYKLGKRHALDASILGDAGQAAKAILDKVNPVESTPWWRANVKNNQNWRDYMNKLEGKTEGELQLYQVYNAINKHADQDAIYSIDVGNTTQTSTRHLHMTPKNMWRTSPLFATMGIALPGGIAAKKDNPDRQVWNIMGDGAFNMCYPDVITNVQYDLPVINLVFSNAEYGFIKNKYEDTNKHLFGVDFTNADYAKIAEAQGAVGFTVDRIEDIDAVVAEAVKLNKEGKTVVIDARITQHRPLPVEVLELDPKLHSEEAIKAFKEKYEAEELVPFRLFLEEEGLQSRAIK

Compound: CC(=O)C(=O)O [sodium pyruvate]
- H2O2 generation, peroxidase-coupled quinoneimine dye at 550 nm: Quinoneimine dye formation was monitored in triplicate with the addition of sodium pyruvate
